Test results: US20260158017A1, “KIF18A INHIBITOR” (WIGEN BIOMEDICINE TECHNOLOGY (SHANGHAI) CO., LTD., priority 2021, published 2026)
pIC50: −log10 of the molar value.

Target: T1, Recombinant human KIF18A (1-467His-tagged) protein (Homo sapiens, UniProt Q8NI77)
T1 construct: Recombinant human KIF18A (1-467His-tagged) protein; His; made in house
Test: KIF18A enzyme assay (microtubule-stimulated ATPase activity, ADP-Glo)
Assay type: biochemical
Details: 30 nM KIF18A, 75 μM ATP, 30 μg/mL pig microtubules; read-out: Inhibitory activity against KIF18A IC50
In short: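 Buffer 15 mM Tris pH 7.5, 10 mM MgCl2, 0.01% Pluronic F-68, 1 μM paclitaxel, 30 μg/mL pig microtubules; reactions at room temperature. IC50 from inhibition relative to DMSO.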

T1 sequence (Q8NI77 1-467): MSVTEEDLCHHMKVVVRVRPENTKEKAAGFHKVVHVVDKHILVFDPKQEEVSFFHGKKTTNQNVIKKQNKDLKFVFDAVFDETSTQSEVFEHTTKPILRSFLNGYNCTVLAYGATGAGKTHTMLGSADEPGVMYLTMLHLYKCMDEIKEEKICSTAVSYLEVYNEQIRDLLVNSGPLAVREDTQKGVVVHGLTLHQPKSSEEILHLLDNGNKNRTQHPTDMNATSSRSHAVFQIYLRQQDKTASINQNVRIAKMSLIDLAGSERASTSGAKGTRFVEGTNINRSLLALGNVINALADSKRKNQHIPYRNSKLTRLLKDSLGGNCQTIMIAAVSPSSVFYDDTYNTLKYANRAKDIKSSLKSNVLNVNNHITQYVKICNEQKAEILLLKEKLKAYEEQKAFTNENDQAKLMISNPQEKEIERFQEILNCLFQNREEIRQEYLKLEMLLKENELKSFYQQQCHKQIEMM
T1 sequence (P02550 whole entry partner): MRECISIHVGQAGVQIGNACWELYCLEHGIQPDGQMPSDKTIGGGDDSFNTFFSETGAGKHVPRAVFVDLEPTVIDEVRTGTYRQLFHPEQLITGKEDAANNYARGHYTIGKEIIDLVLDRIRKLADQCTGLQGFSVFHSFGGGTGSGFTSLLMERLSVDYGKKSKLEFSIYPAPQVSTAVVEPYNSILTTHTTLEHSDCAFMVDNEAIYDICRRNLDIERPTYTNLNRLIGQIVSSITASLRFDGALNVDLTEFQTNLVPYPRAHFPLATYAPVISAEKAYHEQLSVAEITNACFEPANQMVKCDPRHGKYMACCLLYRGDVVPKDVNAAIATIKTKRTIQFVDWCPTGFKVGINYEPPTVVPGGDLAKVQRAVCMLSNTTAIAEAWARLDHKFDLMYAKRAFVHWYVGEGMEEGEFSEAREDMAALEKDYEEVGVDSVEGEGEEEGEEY
T1 sequence (P02554 whole entry partner): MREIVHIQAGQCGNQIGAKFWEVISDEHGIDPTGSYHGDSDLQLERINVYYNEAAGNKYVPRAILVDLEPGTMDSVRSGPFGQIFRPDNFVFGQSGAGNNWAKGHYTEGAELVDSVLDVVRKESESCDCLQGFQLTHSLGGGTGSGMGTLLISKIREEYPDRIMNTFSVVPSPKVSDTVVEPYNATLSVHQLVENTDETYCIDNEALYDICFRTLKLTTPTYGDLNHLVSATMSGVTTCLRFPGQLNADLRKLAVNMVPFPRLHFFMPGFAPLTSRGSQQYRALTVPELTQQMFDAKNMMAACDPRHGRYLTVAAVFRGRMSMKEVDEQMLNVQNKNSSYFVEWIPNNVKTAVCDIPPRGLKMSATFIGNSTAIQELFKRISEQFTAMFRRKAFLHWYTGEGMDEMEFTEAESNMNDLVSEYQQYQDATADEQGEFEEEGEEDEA

| pIC50 | Compound |
| --- | --- |
| 6.30 to 7.00 | C[C@@H](CO)NS(=O)(=O)c1ccc(NC(=O)c2ccc(OCF)c(N3CCC(F)(F)CC3)c2)c(N2CCC3(CC2)CC3)c1 [Compound 541] |
| ≥ 7.00 | O=C(Nc1ccc([N+](=O)[O-])c(N2CCC3(CC3)C2)n1)c1cnc(S(=O)(=O)NCCO)cc1N1CCC2(CC1)CC2 [Compound 150] |
| ≥ 7.00 | COc1ccc(NC(=O)c2ccc(S(=O)(=O)NCCO)cc2N2CCC3(CC2)CC3)nc1OC1CCC1 [Compound 279] |
| 6.30 to 7.00 | C[C@H]1CN(c2cc(C(=O)Nc3ccc(S(=O)(=O)NCCO)cc3N3CCC4(CC3)CC4)ccc2[N+](=O)[O-])CCO1 [Compound 51] |
| ≥ 7.00 | COc1ccc(C(=O)Nc2cnc(NS(=O)(=O)CCO)cc2N2CCC3(CC2)CC3)nc1NC(C)(C)CO [Compound 363] |
| ≥ 7.00 | O=C(Nc1ccc(OCF)c(OC2CCC2)c1)c1cnc(S(=O)(=O)NCCO)cc1N1CCC2(CC1)CC2 [Compound 471] |
| ≥ 7.00 | COc1ccc(NC(=O)c2cnc(NS(=O)(=O)CCO)cc2N2CCC3(CC2)CC3)nc1N1CC2CC2C1 (stereo not shown) [Compound 298] |
| ≥ 7.00 | O=C(Nc1ccc(NS(=O)(=O)CCO)cc1N1CCC2(CC1)CC2)c1ccc(OCF)c(N2CCC3(CC3)C2)n1 [Compound 550] |
| ≥ 7.00 | COc1ccc(C(=O)Nc2ccc(NS(=O)(=O)CCO)cc2N2CCC3(CC2)CC3)nc1NC(C)(C)CO [Compound 331] |
| ≥ 7.00 | O=C(Nc1ccc(OCF)c(N2CC(F)(F)C2)n1)c1cnc(S(=O)(=O)NCCO)cc1N1CCC2(CC1)CC2 [Compound 500] |
| ≥ 7.00 | O=C(Nc1ccc([N+](=O)[O-])c(OCCC(F)(F)F)c1)c1ccc(S(=O)(=O)NCCO)cc1N1CCC2(CC1)CC2 [Compound 21] |
| ≥ 7.00 | O=C(Nc1ccc(OCF)c(N2CC3CC3C2)n1)c1cnc(NS(=O)(=O)CCO)cc1N1CCC2(CC1)CC2 (stereo not shown) [Compound 490] |
| ≥ 7.00 | O=C(Nc1ccc([N+](=O)[O-])c(OCCC(F)(F)F)n1)c1ccc(NS(=O)(=O)CCO)cc1N1CCC2(CC1)CC2 [Compound 69] |
| ≥ 7.00 | CSc1ccc(NC(=O)c2ccc(NS(=O)(=O)CCO)cc2N2CCC3(CC2)CC3)cc1N1CCC(F)(F)CC1 [Compound 577] |
| ≥ 7.00 | O=C(Nc1ccc(OCF)c(N2CC(F)(F)C2)n1)c1ccc(NS(=O)(=O)CCO)cc1N1CCC2(CC1)CC2 [Compound 420] |
| 6.30 to 7.00 | C[C@H]1CN(c2nc(C(=O)Nc3cnc(S(=O)(=O)NCCO)cc3N3CCC4(CC3)CC4)ccc2[N+](=O)[O-])CCO1 [Compound 243] |
| ≥ 7.00 | C[C@@H]1CN(c2nc(NC(=O)c3ccc(NS(=O)(=O)CCO)cc3N3CCC4(CC3)CC4)ccc2[N+](=O)[O-])CCO1 [Compound 66] |
| ≥ 7.00 | COc1ccc(NC(=O)c2ccc(NS(=O)(=O)CCO)cc2N2CCC3(CC2)CC3)nc1NC(C)(C)CO [Compound 267] |
| ≥ 7.00 | COc1ccc(C(=O)Nc2cnc(S(=O)(=O)NCCO)cc2N2CCC3(CC2)CC3)nc1N1CC(F)(F)C1 [Compound 372] |
| ≥ 7.00 | C[C@H](CO)S(=O)(=O)Nc1ccc(NC(=O)c2ccc(OCF)c(N3CCC(F)(F)CC3)n2)c(N2CCC3(CC2)CC3)c1 [Compound 558] |
| 6.30 to 7.00 | O=C(Nc1ccc(S(=O)(=O)NCCO)cc1N1CCC2(CC1)CC2)c1ccc(OCF)c(N2CCOCC2)n1 [Compound 572] |
| ≥ 7.00 | CSc1ccc(NC(=O)c2cnc(NS(=O)(=O)[C@@H](C)CO)cc2N2CCC3(CC2)CC3)nc1N1CCC(F)(F)CC1 [Compound 637] |
| 6.30 to 7.00 | O=C(Nc1ccc(S(=O)(=O)NCCO)cc1N1CCC2(CC1)CC2)c1ccc([N+](=O)[O-])c(N2CC(F)(F)C2)c1 [Compound 52] |

| pIC50 | Compound |
| --- | --- |
| ≥ 7.00 | CSc1ccc(NC(=O)c2ccc(NS(=O)(=O)CCO)cc2N2CCC3(CC2)CC3)nc1OCCC(F)(F)F [Compound 597] |
| ≥ 7.00 | C[C@H]1CN(c2cc(NC(=O)c3cnc(NS(=O)(=O)CCO)cc3N3CCC4(CC3)CC4)ccc2[N+](=O)[O-])CCO1 [Compound 99] |
| ≥ 7.00 | O=C(Nc1ccc([N+](=O)[O-])c(N2CCC(F)CC2)c1)c1cnc(S(=O)(=O)NCCO)cc1N1CCC2(CC1)CC2 [Compound 121] |
| ≥ 7.00 | CC1(F)CCN(c2cc(C(=O)Nc3ccc(NS(=O)(=O)CCO)cc3N3CCC4(CC3)CC4)ccc2OCF)C1 (stereo not shown) [Compound 520] |
| ≥ 7.00 | C[C@@H]1CN(c2cc(NC(=O)c3ccc(NS(=O)(=O)CCO)cc3N3CCC4(CC3)CC4)ccc2[N+](=O)[O-])CCO1 [Compound 2] |
| ≥ 7.00 | O=C(Nc1ccc(OCF)c(N2CCC3(CC3)C2)c1)c1cnc(S(=O)(=O)NCCO)cc1N1CCC2(CC1)CC2 [Compound 470] |
| ≥ 7.00 | O=C(Nc1ccc(NS(=O)(=O)CCO)cc1N1CCC2(CC1)CC2)c1ccc([N+](=O)[O-])c(OC2CCC2)c1 [Compound 39] |
| ≥ 7.00 | O=C(Nc1ccc(OCF)c(N2CCOCC2)c1)c1cnc(NS(=O)(=O)CCO)cc1N1CCC2(CC1)CC2 [Compound 460] |
| ≥ 7.00 | COc1ccc(NC(=O)c2cnc(S(=O)(=O)N[C@H](C)CO)cc2N2CCC3(CC2)CC3)nc1N1CCO[C@H](C)C1 [Compound 320] |
| ≥ 7.00 | CSc1ccc(NC(=O)c2cnc(NS(=O)(=O)CCO)cc2N2CCC3(CC2)CC3)cc1N1CCC(C)(F)C1 (stereo not shown) [Compound 616] |
| ≥ 7.00 | C[C@@H]1CN(c2cc(NC(=O)c3ccc(NS(=O)(=O)[C@H](C)CO)cc3N3CCC4(CC3)CC4)ccc2[N+](=O)[O-])CCO1 [Compound 16] |
| ≥ 7.00 | CSc1ccc(NC(=O)c2ccc(NS(=O)(=O)CCO)cc2N2CCC3(CC2)CC3)nc1N1CCC(F)CC1 [Compound 601] |
| ≥ 7.00 | C[C@@H](CO)NS(=O)(=O)c1cc(N2CCC3(CC2)CC3)c(C(=O)Nc2ccc([N+](=O)[O-])c(N3CCC(F)(F)CC3)c2)cn1 [Compound 125] |
| ≥ 7.00 | COc1ccc(C(=O)Nc2cnc(NS(=O)(=O)CCO)cc2N2CCC3(CC2)CC3)nc1N1CCC(F)CC1 [Compound 361] |
| ≥ 7.00 | C[C@@H](CO)NS(=O)(=O)c1ccc(C(=O)Nc2ccc([N+](=O)[O-])c(N3CCC(F)(F)CC3)c2)c(N2CCC3(CC2)CC3)c1 [Compound 29] |
| ≥ 7.00 | O=C(Nc1ccc(NS(=O)(=O)CCO)cc1N1CCC2(CC1)CC2)c1ccc([N+](=O)[O-])c(N2CCOCC2)c1 [Compound 44] |
| ≥ 7.00 | O=C(Nc1ccc([N+](=O)[O-])c(N2CC(F)(F)C2)n1)c1cnc(S(=O)(=O)NCCO)cc1N1CCC2(CC1)CC2 [Compound 148] |
| ≥ 7.00 | O=C(Nc1ccc(OCF)c(OC2CCC2)n1)c1ccc(NS(=O)(=O)CCO)cc1N1CCC2(CC1)CC2 [Compound 423] |
| ≥ 7.00 | C[C@@H](CO)S(=O)(=O)Nc1cc(N2CCC3(CC2)CC3)c(C(=O)Nc2ccc(OCF)c(N3CCC(F)(F)CC3)c2)cn1 [Compound 461] |
| ≥ 7.00 | C[C@@H]1CN(c2cc(NC(=O)c3cnc(S(=O)(=O)N[C@@H](C)CO)cc3N3CCC4(CC3)CC4)ccc2OCF)CCO1 [Compound 479] |
| 6.30 to 7.00 | O=C(Nc1cnc(S(=O)(=O)NCCO)cc1N1CCC2(CC1)CC2)c1ccc([N+](=O)[O-])c(N2CCC(F)CC2)c1 [Compound 217] |
| ≥ 7.00 | C[C@H]1CN(c2cc(NC(=O)c3ccc(S(=O)(=O)NCCO)cc3N3CCC4(CC3)CC4)ccc2[N+](=O)[O-])CCO1 [Compound 19] |
| ≥ 7.00 | O=C(Nc1ccc(OCF)c(N2CCC(F)(F)CC2)c1)c1ccc(S(=O)(=O)NCCO)cc1N1CCC2(CC1)CC2 [Compound 401] |
